Results as given in patent publication US9474759B2 (priority 2011, dated 2016).
Read-outs that look alike come from different tables or passages of the source.

What was measured:
TGEV 3CL protease = TGEV 3CL protease (Porcine transmissible gastroenteritis coronavirus, UniProt P0C6Y5); experiment: FRET-based protease assay, TGEV 3CL protease (Example 5); assay type: biochemical, TGEV Miller strain; settings: TGEV 3CL protease; read-out: IC50 against 3CL protease in the FRET assay
Text: The 3CL proteases are highly conserved among all coronaviruses, and feline coronavirus 3CL protease is closely related TGEV 3CL protease. Therefore we cloned and expressed the TGEV 3CL protease for the FRET assay. The cDNA encoding the full length of 3CL protease of TGEV Miller strain was amplified with RT-PCR as previously described. The primers contained the nucleotide sequence of the 3CL protease for cloning as well as the nucleotides for 6 Histidine in the forward primer. The amplified product was subcloned to pET-28a(+) vector (GenScript, Piscataway, N.J.). The expression and purification of the 3CL protease was performed with a standard method described previously by our lab (Chang et al., 2012b; Takahashi et al., 2012; Tiew et al., 2011).
Our protease inhibitor compounds and commercial cathepsin inhibitors CA074-Me and E64d were prepared in DMSO as stock solutions (10 mM), and further diluted in assay buffer consisting of 20 mM HEPES, 0.4 mM EDTA, 30% glycerol, 120 mM NaCl, and 4 mM DTT at pH 6. […] TGEV 3CL protease at a final concentration of 0.1˜0.2 μM and the substrate (Dabcyl-[…]-Edans; SEQ ID NO:2) at 10 μM were used for the studies. The substrate was purchased from Bachem Americas, Inc (Torrance, Calif.). Compounds at various concentrations (0˜50 μM) were pre-incubated with TGEV 3CL protease in 25 μl for 30 min at 37° C., and the same volume of substrate was added to a 96-well black plate. The mixtures were then incubated at 37° C. for 60 min, and fluorescence readings were obtained on a microplate reader at 360 nm excitation and 480 nm emission wavelengths. The relative fluorescence units (RFU) were calculated by subtracting background (substrate control well without protease) from the fluorescence readings. The dose-dependent FRET inhibition curves were fitted with variable slope (four parameters) using GraphPad Prism software (La Jolla, Calif.) in order to determine the compound concentration that gives a half-maximum response (IC50).

[1] = target: NV 3CLpro (codon-optimized, full-length, N-terminal 6 His, recombinant) (Norovirus, UniProt Q83883); experiment: biochemical; parameters: species or system norovirus strain Norwalk
NV 3CLpro (codon-optimized, full-length, N-terminal 6 His, recombinant), sequence (Q83883 1101-1281): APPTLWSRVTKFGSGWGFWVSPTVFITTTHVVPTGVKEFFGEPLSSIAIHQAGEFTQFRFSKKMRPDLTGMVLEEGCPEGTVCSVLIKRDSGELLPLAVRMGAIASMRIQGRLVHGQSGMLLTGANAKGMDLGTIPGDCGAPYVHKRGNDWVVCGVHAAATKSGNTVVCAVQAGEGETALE

MNV-1 [2] = experiment: Cell-based screening, MNV-1 in RAW267.4 cells (Example 2); parameters: species or system murine norovirus; settings: Norwalk virus; RAW267.4 cells; read-out: Inhibition [ED50 (μM)] against various viruses: Calicivirus, MNV-1
Description: (§1) 3. Cell-based screening of inhibitor. The effects of each inhibitor on the viral replication were examined. The list of viruses and corresponding cell lines are listed above in Table 2. Briefly, confluent cells were inoculated with virus at a MOI of 5 or 0.05 for 1 hr, and medium was replaced with medium containing mock-medium or each compound (up to 100 μM). The virus infected cells were further incubated for up to 96 hrs, and the replication of virus was measured by TCID50 assay with the 10-fold dilution of each sample used for virus titration (Reed and Muench, 1938). In some viruses, the virus protein and genome expression levels were detected by Western blot analysis and real-time qRT-PCR, respectively, as described below. The IC50s of the compounds were calculated.

[3] = test system: Norwalk virus (HG23 cells); experiment: microbe, parasite or virus in culture; assay type: cell-based; settings: HG23, read-out: Inhibition [ED50 (μM)] against various viruses: Calicivirus, HG23 cells
[4] = target: PV 3Cpro (codon-optimized, N-terminal 6 His, recombinant) (Poliovirus type 1, UniProt P03300); experiment: biochemical; parameters: species or system poliovirus (poliomyelitis virus)
PV 3Cpro (codon-optimized, N-terminal 6 His, recombinant), sequence (P03300 1566-1748 limits assumed): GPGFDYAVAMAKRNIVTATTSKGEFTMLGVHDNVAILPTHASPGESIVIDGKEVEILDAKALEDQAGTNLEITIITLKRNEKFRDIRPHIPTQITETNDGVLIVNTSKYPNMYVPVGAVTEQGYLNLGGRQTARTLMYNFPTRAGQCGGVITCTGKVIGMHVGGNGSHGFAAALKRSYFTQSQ

FCV [5] = experiment: Cell culture system, FCV replication in CRFK cells (Example 3); assay type: cell-based, feline calicivirus; settings: Feline calicivirus; cell-based assay, CRFK cells; read-out: IC50 against FCV replication
[6] = target: FMDV 3Cpro (codon-optimized, N-terminal 6 His, recombinant) (Foot-and-mouth disease virus serotype O, UniProt P03305); experiment: biochemical
FMDV 3Cpro (codon-optimized, N-terminal 6 His, recombinant), sequence (P03305 1650-1862 limits assumed): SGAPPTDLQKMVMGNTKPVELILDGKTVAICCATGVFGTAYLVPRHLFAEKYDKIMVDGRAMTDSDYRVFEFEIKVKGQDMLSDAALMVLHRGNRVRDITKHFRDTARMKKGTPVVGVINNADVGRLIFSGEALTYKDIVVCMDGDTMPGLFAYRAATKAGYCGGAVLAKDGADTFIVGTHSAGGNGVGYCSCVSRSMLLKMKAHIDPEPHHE

EV71 = experiment: Cell-based screening, EV71 in Vero cells (Example 2); parameters: species or system enterovirus 71; settings: Enterovirus A, EV71; Vero cells; read-out: Inhibition [ED50 (μM)] against various viruses: Picornavirus, EV71
Description: as §1

MNV-1 [7] = experiment: microbe, parasite or virus in culture; settings: Norwalk virus, read-out: Initial IC50 values against MNV-1
FECV-1683 = FECV-1683 replication in CRFK cells, TCID50 method; assay type: cell-based, feline coronavirus; settings: Alphacoronavirus 1, MOI 0.05, mean ± SEM
Description: (§2) Crandell Rees feline kidney (CRFK) cells were maintained in minimal essential medium containing 2-5% fetal bovine serum and antibiotics (chlortetracycline [25 μg/ml], penicillin [250 U/ml], and streptomycin [250 μg/ml]). FIPV WSU 79-1146 and FECV WSU 79-1683 strains are the prototypes of serotype II FIPV or FECV, respectively, and were purchased from ATCC (Manassas, Va.).
(§3) The cells were further incubated in the presence of each compound for 1 hr at 37° C. Then […] or FECV-1683 was inoculated to the cells at a multiplicity of infection (MOI) of 0.05 or 5.
(§4) b. TCID50 Method. A standard TCID50 method with the 10-fold dilution of each sample was used for virus titration.

TGEV = experiment: Cell-based screening, TGEV in ST cells (Example 2); parameters: species or system transmissible gastroenteritis virus; settings: Alphacoronavirus 1; ST cells; read-out: Inhibition [ED50 (μM)] against various viruses: Coronavirus, TGEV
Description: as §1

FIPV-1146 = FIPV-1146 replication in CRFK cells, TCID50 method; assay type: cell-based, feline coronavirus; settings: Alphacoronavirus 1, MOI 0.05, mean ± SEM
Description: as §2, §3, §4

FIPV = experiment: Cell-based screening, FIPV in CRFK cells (Example 2); parameters: species or system feline infectious peritonitis virus; settings: Alphacoronavirus 1; CRFK cells; read-out: Inhibition [ED50 (μM)] against various viruses: Coronavirus, FIPV
Description: as §1

FCV [8] = experiment: Cell-based screening, FCV in CRFK cells (Example 2); settings: Feline calicivirus; CRFK cells; read-out: Inhibition [ED50 (μM)] against various viruses: Calicivirus, FCV
Description: as §1

229E = experiment: Cell-based screening, 229E in MRC-5 cells (Example 2); settings: Human coronavirus 229E, MRC5; MRC-5 cells; read-out: Inhibition [ED50 (μM)] against various viruses: Coronavirus, 229E
Description: as §1

[9] = target: MD145 3CLpro (codon-optimized, full-length, N-terminal 6 His, recombinant) (Lordsdale virus, UniProt P54634); experiment: biochemical; parameters: species or system norovirus strain MD145 (human norovirus GII)
MD145 3CLpro (codon-optimized, full-length, N-terminal 6 His, recombinant), sequence (P54634 1009-1189): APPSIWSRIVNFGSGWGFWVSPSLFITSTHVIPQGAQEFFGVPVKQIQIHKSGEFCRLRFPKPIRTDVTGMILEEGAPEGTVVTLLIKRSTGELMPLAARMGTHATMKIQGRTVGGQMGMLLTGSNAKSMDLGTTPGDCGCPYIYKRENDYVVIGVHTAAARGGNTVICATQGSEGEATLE

[10] = target: MNV-1 3CLpro (codon-optimized, full-length, recombinant) (Norovirus, UniProt Q80J95); experiment: biochemical; parameters: species or system murine norovirus-1 (GV)
MNV-1 3CLpro (codon-optimized, full-length, recombinant), sequence (Q80J95 995-1177): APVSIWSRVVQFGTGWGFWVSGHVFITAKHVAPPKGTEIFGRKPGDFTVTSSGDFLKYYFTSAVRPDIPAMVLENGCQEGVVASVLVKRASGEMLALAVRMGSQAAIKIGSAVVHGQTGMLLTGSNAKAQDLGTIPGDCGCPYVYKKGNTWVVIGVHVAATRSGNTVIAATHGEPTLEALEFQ

HAV = experiment: Cell-based screening, HAV (Example 2); parameters: species or system hepatitis A virus; settings: Picornaviridae; read-out: Inhibition [ED50 (μM)] against various viruses: Picornavirus, HAV
Description: as §1

Teschovirus = experiment: organism not typed; assay type: cell-based, porcine teschovirus; settings: read-out: Inhibition [ED50 (μM)] against various viruses: Picornavirus, Teschovirus
[11] = target: recombinant 3C or 3CL of MD145 (Norovirus Hu/GII.4/MD145-12/1987/US (Maryland virus), UniProt Q8V0P3); experiment: FRET protease assay, MD145 3CL (Example 2); assay type: biochemical, norovirus strain MD145
recombinant 3C or 3CL of MD145, sequence (Q8V0P3 entry or part of it): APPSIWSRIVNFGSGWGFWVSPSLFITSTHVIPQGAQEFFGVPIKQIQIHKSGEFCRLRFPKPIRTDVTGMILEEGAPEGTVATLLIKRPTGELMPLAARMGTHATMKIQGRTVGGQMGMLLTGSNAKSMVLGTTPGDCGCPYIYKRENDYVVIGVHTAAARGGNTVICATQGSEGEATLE

TGEV 3CL protease, sequence (P0C6Y5 2879-3180): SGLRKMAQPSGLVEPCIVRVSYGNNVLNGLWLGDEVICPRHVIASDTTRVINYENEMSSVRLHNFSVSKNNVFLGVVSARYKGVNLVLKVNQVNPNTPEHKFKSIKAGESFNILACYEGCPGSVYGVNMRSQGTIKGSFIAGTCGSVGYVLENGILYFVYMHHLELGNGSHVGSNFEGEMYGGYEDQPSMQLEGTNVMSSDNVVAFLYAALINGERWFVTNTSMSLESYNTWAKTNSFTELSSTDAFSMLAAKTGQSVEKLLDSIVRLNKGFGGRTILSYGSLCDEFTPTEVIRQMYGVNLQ

CC(C)C[C@H](NC(=O)OCc1ccccc1)C(=O)N[C@@H](CC1CCNC1=O)C(O)S(=O)(=O)O (stereo partly shown) [GC376]
IC50 (TGEV 3CL protease): 0.82 µM
IC50 [1]: 0.49 ± 0.05 µM
EC50 (MNV-1 [2]): 5.3 µM
EC50 [3]: 1.8 µM
IC50 [4]: 1.77 ± 0.31 µM
IC50 (FCV [5]): 35 µM
IC50 [6]: 1.16 ± 0.75 µM
EC50 (EV71): 10 µM
IC50 (MNV-1 [7]): 6.2 to 7.1 µM
EC50 (FECV-1683; 24 hr post infection, read-out: Inhibition [ED50 (μM)] against FECV-1683, 24 hrs): 0.17 ± 0.11 µM
EC50 (FECV-1683; 48 hr post infection, read-out: Inhibition [ED50 (μM)] against FECV-1683, 48 hrs): 0.28 ± 0.1 µM
EC50 (TGEV): 0.15 µM
EC50 (FIPV-1146; 24 hr post infection, read-out: Inhibition [ED50 (μM)] against FIPV-1146, 24 hrs): 0.15 ± 0.05 µM
EC50 (FIPV-1146; 48 hr post infection, read-out: Inhibition [ED50 (μM)] against FIPV-1146, 48 hrs): 0.3 ± 0.1 µM
EC50 (FIPV): 0.2 µM
EC50 (FCV [8]): 35 µM
EC50 (229E): 0.3 µM
IC50 [9]: 0.96 µM
IC50 [10]: 1.12 µM
EC50 (HAV): 50 µM
EC50 (Teschovirus): 0.15 µM
IC50 [11]: 9.8 µM
